Legend:
Test in all cases: NADPH formation at […] nm, plate reader, Michaelis-Menten nonlinear fit
Type in all cases: biochemical
Conditions in all cases: 200 µM NADP+, 100 mM beta-mercaptoethanol, Tris/HCl pH 7.6, 30 °C; WT values said to accord with the authors' earlier paper [22]
[1] = target: T1, 10-formyl-THFDH (Amel_10-formyl-THFDH) (Apis mellifera, UniProt A0A7M7GVR6)
T1 construct: gene LOC551401; full-length ORF, N-terminal 6xHis tag (MHHHHHHAQLKVA...) not reported cleaved, baculovirus expression in Hi5 insect cells, Ni-NTA purified
T1 sequence (A0A7M7GVR6 entry or part of it): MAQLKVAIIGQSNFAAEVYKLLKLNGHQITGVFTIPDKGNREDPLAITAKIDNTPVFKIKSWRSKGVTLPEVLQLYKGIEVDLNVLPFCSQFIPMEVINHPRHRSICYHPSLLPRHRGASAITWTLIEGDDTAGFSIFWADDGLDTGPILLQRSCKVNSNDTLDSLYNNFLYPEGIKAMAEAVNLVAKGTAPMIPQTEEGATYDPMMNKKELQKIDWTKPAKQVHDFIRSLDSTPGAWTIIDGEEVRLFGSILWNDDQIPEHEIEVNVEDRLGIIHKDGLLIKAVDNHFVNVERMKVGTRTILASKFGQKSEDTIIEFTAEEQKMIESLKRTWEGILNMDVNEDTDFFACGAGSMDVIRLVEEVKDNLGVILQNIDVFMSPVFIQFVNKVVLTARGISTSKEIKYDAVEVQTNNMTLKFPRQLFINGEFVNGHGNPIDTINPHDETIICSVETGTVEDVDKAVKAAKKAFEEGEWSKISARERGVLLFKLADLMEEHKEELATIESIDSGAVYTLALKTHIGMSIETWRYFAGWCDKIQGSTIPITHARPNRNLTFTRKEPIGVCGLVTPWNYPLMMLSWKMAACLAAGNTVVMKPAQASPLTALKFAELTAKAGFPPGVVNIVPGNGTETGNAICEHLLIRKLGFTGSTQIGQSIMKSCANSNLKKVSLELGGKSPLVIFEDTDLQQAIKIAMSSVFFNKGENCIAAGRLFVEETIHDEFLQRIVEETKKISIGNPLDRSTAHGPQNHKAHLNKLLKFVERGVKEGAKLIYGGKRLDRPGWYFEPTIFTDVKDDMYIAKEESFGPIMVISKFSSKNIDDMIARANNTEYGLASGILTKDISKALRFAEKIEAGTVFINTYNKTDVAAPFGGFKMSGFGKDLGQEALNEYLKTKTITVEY

[2] = target: T1, 10-formyl-THFDH (Amel_10-formyl-THFDH); remark: listed apart in the source
[3] = target: T1, 10-formyl-THFDH (Amel_10-formyl-THFDH); remark: listed apart in the source
[4] = target: T1, 10-formyl-THFDH (Amel_10-formyl-THFDH); remark: listed apart in the source

Nc1nc2c(c(=O)[nH]1)NC(CN(C=O)c1ccc(C(=O)N[C@@H](CCC(=O)O)C(=O)O)cc1)CN2 (stereo partly shown) [10-formyl-THF]
NADPH formation at 340 nm, plate reader, Michaelis-Menten nonlinear fit [1]: The mutations lost their activity almost entirely | Km [2]: 9.6 µM | NADPH formation at 340 nm, plate reader, Michaelis-Menten nonlinear fit [3]: The mutations lost their activity almost entirely | NADPH formation at 340 nm, plate reader, Michaelis-Menten nonlinear fit [4]: The mutations lost their activity almost entirely

— paper PMC9820478, “The Active Site of the Enzyme 10-Formyl-THFDH in the Honey Bee Apis mellifera—A Key Player in Formic Acid Detoxification” (International Journal of Molecular Sciences, 2022)
